Assay results from ChEMBL document CHEMBL1144569 (Bioorg Med Chem, 2007).
The source made the active and inactive calls. The rule behind the calls is not given here.

Experiments:
[1] = target: T1, Cannabinoid receptor 2 (Homo sapiens, UniProt P34972); assay: Antagonist activity at CB2 receptor expressed in HL60 cells assessed as abrogation of 2-archidonoylglycerol-induced increase in intracellular free calcium levels; type: functional, cell-based; settings: HL-60
[2] = target: Cannabinoid receptor 1 (Homo sapiens) (UniProt P21554); assay: Antagonist activity at CB1 receptor expressed in NG108-15 cells assessed as abrogation of 2-archidonoylglycerol-induced increase in intracellular free calcium levels; type: functional, cell-based
Cannabinoid receptor 1 (Homo sapiens), sequence (P21554 whole entry): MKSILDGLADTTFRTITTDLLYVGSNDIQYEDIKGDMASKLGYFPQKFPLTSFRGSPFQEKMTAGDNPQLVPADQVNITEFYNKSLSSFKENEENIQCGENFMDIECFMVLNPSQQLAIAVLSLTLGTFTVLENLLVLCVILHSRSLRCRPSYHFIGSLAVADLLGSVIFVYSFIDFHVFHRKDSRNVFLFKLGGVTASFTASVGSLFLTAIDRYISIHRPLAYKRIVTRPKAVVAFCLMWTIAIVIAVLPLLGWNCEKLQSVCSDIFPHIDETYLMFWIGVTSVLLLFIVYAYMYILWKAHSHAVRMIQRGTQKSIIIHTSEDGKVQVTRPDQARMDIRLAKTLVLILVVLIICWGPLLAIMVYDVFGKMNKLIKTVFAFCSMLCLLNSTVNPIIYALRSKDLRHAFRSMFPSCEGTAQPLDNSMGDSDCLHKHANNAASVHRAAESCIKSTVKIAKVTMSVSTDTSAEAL

[3] = target: T1, Cannabinoid receptor 2; assay: Agonist activity at CB2 receptor expressed in HL60 cells assessed as increase in intracellular free calcium concentrations; type: functional, cell-based, HL-60

T1 sequence (P34972 whole entry): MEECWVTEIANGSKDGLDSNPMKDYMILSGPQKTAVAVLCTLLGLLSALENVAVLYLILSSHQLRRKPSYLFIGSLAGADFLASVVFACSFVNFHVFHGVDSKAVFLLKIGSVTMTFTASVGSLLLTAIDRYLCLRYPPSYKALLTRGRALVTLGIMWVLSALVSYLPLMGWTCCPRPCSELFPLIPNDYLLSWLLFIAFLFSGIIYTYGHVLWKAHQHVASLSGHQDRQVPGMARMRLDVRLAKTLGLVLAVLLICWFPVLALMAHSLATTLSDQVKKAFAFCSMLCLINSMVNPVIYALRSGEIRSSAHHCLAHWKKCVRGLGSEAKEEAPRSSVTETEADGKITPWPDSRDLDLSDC

With `CCCCC/C=C\C/C=C\C/C=C\C/C=C\CCCC(=O)OC(CO)CO` [2-ARACHIDONOYLGLYCEROL] the Activity [1] was “Active”, the Activity [2] was “Active” and the EC50 [3] was 17 nM.
